# Measurements published in the COVID Moonshot data (paper PMC7615835).
# Several values for one entry are separate records, joined by “and”; a condition that tells them apart may be missing. Identical values can stand only once.
# Target: SARS-CoV-2 Main Protease (SARS-CoV-2) (UniProt P0DTD1)
row,SMILES,IC50
1,CC(C)(C)c1ccc(N(C(=O)C2CCCO2)C(C(=O)NCCc2cccc(F)c2)c2cccnc2)cc1 (stereo unspecified),5560 nM
2,COc1cc(CNc2cc(Cl)cc(CC(=O)Nc3cncc4ccccc34)c2)ccc1O,1880 nM
3,CS(=O)(=O)c1ccc2c(NC(=O)C3CN(S(=O)(=O)CC4(C#N)CC4)Cc4ccc(Cl)cc43)cncc2c1 (stereo unspecified),58.2 nM and 117 nM
4,O=C(CCl)N1CCN(S(=O)(=O)c2cccs2)CC1,2070 nM and 2260 nM
5,Cc1ccc2nnc(CNc3ccc4nnc(C(F)(F)F)n4n3)n2c1,> 99500 nM
6,N#CC1(CS(=O)(=O)N2Cc3ccc(Cl)cc3C(C(=O)Nc3cncc4cc(NS(=O)(=O)C5CC5)ccc34)C2)CC1 (stereo unspecified),< 50 nM
7,Cc1cc(NC(=O)Cc2cncnc2)cc(OC2CC(=O)N2)c1 (stereo unspecified),34600 nM and 34000 nM
8,O=C(Cc1cc(Cl)cc(Nc2cccc3ccc(O)cc23)c1)Nc1cncc2ccccc12,3200 nM
9,CC(=O)C(=O)N1CCN(Cc2cccc(Cl)c2)CC1,> 99500 nM
10,O=C(Cc1cccc(Cl)c1)Nc1cncc2oncc12,50600 nM
11,O=C(Cc1cc(Cl)cc(Nc2ccc(Oc3ccccc3Cl)cc2)c1)Nc1cncc2ccccc12,2490 nM
12,Cc1cc(C(=O)CCl)c(C)n1CC1COc2ccccc2O1 (stereo unspecified),2820 nM
13,O=C(Cc1cccc(Cl)c1)NC1CCCNC1=O (stereo unspecified),> 99500 nM
14,COC1(C(=O)Nc2cncc3ccncc23)CCOc2ccc(Cl)cc21 (stereo unspecified),832 nM
15,O=C(CC1(C(=O)Nc2cncc3ccccc23)CCOc2ccc(Cl)cc21)N1CCCC1c1nn[nH]n1 (stereo unspecified),7980 nM
16,Cc1ccc2cncc(NC(=O)Cc3cccc(Cl)c3)c2c1,537 nM
17,O=C(NNc1nc2cccnc2s1)c1ccc2ccncc2c1,> 99500 nM
18,CC(=O)C(=O)N1CCN(Cc2cccc(Cl)c2)[C@@H](CC(C)C)C1 (stereo in doubt),> 99500 nM
19,O=C(Nc1cncc2ccccc12)C1CCNc2cc(Cl)c(Cl)cc21 (stereo unspecified),154 nM
20,COC(=O)C(C(=O)Nc1cnccc1C)c1cccc(Cl)c1 (stereo unspecified),23700 nM
21,COc1cc(Cl)nc(Nc2cc(Cl)cc(CC(=O)Nc3cncc4ccccc34)c2)n1,504 nM
22,Cn1c(NCc2cn3ccnc3s2)nc2ccccc21,> 99500 nM
23,O=C(Nc1cncc2cc(CN3CCNCC3)ccc12)C1CCOc2ccc(Cl)cc21 (stereo unspecified),1830 nM
24,O=S(=O)(Nc1cc2c(cc1OCc1ccccc1)OCO2)c1ccccc1,> 99500 nM
25,CN(C)CCCOc1ccc2cncc(N3CCC4(CN(S(=O)(=O)CC5(C#N)CC5)Cc5ccc(Cl)cc54)C3=O)c2c1 (stereo unspecified),149 nM
26,CC(=O)NCC1(C(=O)Nc2cncc3ccccc23)CCOc2ccc(Cl)cc21 (stereo unspecified),3340 nM

row,SMILES,IC50
1,O=C(Cc1cc(Cl)cc(CC2CC(=O)N2)c1)Nc1cncc2ccccc12 (stereo unspecified),4570 nM
2,O=C(Cc1cc(Cl)cc(NCc2ccc3c(c2)OCO3)c1)Nc1cncc2ccccc12,2520 nM
3,COCCN1CC(C(=O)Nc2cncc3ccccc23)c2cc(Cl)ccc2C1=O (stereo unspecified),267 nM
4,O=C(NCCc1cccc(F)c1)C(c1cccnc1)N(C(=O)c1cocn1)c1ccc(C(F)(F)F)nc1 (stereo unspecified),36400 nM
5,O=C(Cc1cc(Cl)cc(Nc2ccc(-c3ccccn3)cc2)c1)Nc1cncc2ccccc12,1670 nM
6,CC(O)Cc1c(C(=O)N(c2ccc(C(C)(C)C)cc2)C(C(=O)NCCc2cccc(F)c2)c2cccnc2)[nH][nH]c1=O (stereo unspecified),> 99500 nM
7,CN(Cc1ccccc1Br)c1cc(Cl)cc(CC(=O)Nc2cncc3ccccc23)c1,2110 nM
8,Cc1cccc(NC(=O)[C@@H](c2ccccc2)N2Cc3ccccc3C2=O)n1 (stereo in doubt),> 99500 nM
9,COc1ccccc1NC1CN(C(=O)c2cc(=O)[nH]c3ccccc23)C1,> 99500 nM
10,Cn1nncc1CC(=O)NC(c1ccccc1)c1nc2ccccc2n1C (stereo unspecified),35700 nM
11,O=C(NCCc1cccc(F)c1)C(c1cccnc1)N(C(=O)c1cocn1)C1CCN(c2ccccc2)C1 (stereo unspecified),> 99500 nM
12,Cc1c(Cl)ccc2c1[C@H](C(=O)Nc1cncc3ccccc13)CCO2 (stereo in doubt),3670 nM
13,CN(C)C(=O)c1ccc2c(NC(=O)Cc3cccc(Cl)c3)cncc2c1,2440 nM
14,CCCNC(=O)CN1CC(C(=O)Nc2cncc3cc(S(C)(=O)=O)ccc23)c2cc(Cl)ccc2C1=O (stereo unspecified),127 nM and 209 nM
15,O=C(CCl)N1CCN(C2(c3cccc(Cl)c3)CC2)CC1,64900 nM and 42100 nM
16,Cc1sc(Nc2cc(Cl)cc(CC(=O)Nc3cncc4ccccc34)c2)nc1-c1ccc(Cl)cc1,2820 nM
17,Cc1c(C(=O)N2CCC(C3CCNC3)CC2)cccc1-c1ccccn1 (stereo unspecified),> 99500 nM
18,O=C(Cc1cc(Cl)cc(-n2c(C3CCNCC3)nc3ccccc32)c1)Nc1cncc2ccccc12,2240 nM
19,Cc1cc(F)cc2cncc(NC(=O)Cc3cccc(Cl)c3)c12,851 nM
20,O=C(Nc1cnccc1Cl)c1cc(Cl)ccc1O,24200 nM
21,CC1(CS(=O)(=O)N2Cc3ccc(Cl)cc3C(C(=O)Nc3cncc4ccc(C(C)(C)O)cc34)C2)CS(=O)(=O)C1 (stereo unspecified),2360 nM
22,Nc1nn(C(=O)Cc2cccc(Cl)c2)c2cccnc12,> 99500 nM
23,O=C(Cc1cc(Cl)cc(Nc2nnc(C(F)(F)F)s2)c1)Nc1cncc2ccccc12,2440 nM
24,CN1CCN(c2cncc3ccccc23)C(=O)C1c1cccc(Cl)c1 (stereo unspecified),2210 nM
25,O=C(Cc1cc(Cl)cc(OC(F)(F)F)c1)Nc1cncc2ccccc12,1550 nM
